From ChEMBL document CHEMBL1201862, “PubChem BioAssay data set” (2004)
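Method: 48-hour compound exposure of cells in 96-well plates, five concentrations, linear interpolation of endpoints. GI50 is the concentration that inhibits growth by half.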 Active and inactive are the calls of the source. Cut-off read from the data, not from the text of the source: active = GI50 up to about 1.1 µM and inactive = higher.

What was measured:
Test in all cases: growth of human tumour cells (NCI), 48 h
[1] = test system: HCT-116
[2] = test system: NCI-H460
[3] = test system: RXF 393
[4] = test system: SF-268
[5] = test system: SNB-75
[6] = test system: CCRF-CEM
[7] = test system: HT-29
[8] = test system: CAKI-1
[9] = test system: TK-10
[10] = test system: U-251
[11] = test system: MDA-MB-435
[12] = test system: IGROV-1
[13] = test system: SK-MEL-5
[14] = test system: SN12C
[15] = test system: SR
[16] = test system: SW-620
[17] = test system: COLO 205
[18] = test system: MOLT-4
[19] = test system: MCF7
[20] = test system: NCI-H226
[21] = test system: OVCAR-8
[22] = test system: UACC-62
[23] = test system: ACHN
[24] = test system: SK-OV-3
[25] = test system: M14
[26] = test system: MDA-MB-231
[27] = test system: OVCAR-4
[28] = test system: MDA-N
[29] = test system: UACC-257
[30] = test system: HCC 2998
[31] = test system: DU-145
[32] = test system: BT-549
[33] = test system: PC-3
[34] = test system: Hs-578T
[35] = test system: KM12
[36] = test system: NCI-H522
[37] = test system: SNB-19
[38] = test system: NCI-H23
[39] = test system: RPMI-8226
[40] = test system: UO-31
[41] = test system: K562
[42] = test system: HCT-15
[43] = test system: EKVX
[44] = test system: SK-MEL-2
[45] = test system: A498
[46] = test system: SF-295
[47] = test system: Malme-3M
[48] = test system: HOP-62
[49] = test system: OVCAR-3
[50] = test system: A549
[51] = test system: SK-MEL-28
[52] = test system: 786-0
[53] = test system: T47D
[54] = test system: NCI/ADR-RES
[55] = test system: OVCAR-5
[56] = test system: LOX IMVI
[57] = test system: SF-539

Which results are given for `CCn1c(=O)ccc2ccc(N(CCO)CCO)nc21`?
GI50 [1]: > 100 µM (inactive); GI50 [2]: > 100 µM (inactive); GI50 [3]: > 100 µM (inactive); GI50 [4]: > 100 µM (inactive); GI50 [5]: > 100 µM (inactive); GI50 [6]: > 100 µM (inactive); GI50 [7]: > 100 µM (inactive); GI50 [8]: > 100 µM (inactive); GI50 [9]: > 100 µM (inactive); GI50 [10]: > 100 µM (inactive); GI50 [11]: > 100 µM (inactive); GI50 [12]: > 100 µM (inactive); GI50 [13]: > 100 µM (inactive); GI50 [14]: > 100 µM (inactive); GI50 [15]: > 100 µM (inactive); GI50 [16]: > 100 µM (inactive); GI50 [17]: > 100 µM (inactive); GI50 [18]: 97.7 µM (inactive); GI50 [19]: > 100 µM (inactive); GI50 [20]: > 100 µM (inactive); GI50 [21]: > 100 µM (inactive); GI50 [22]: > 100 µM (inactive); GI50 [23]: > 100 µM (inactive); GI50 [24]: > 100 µM (inactive); GI50 [25]: > 100 µM (inactive); GI50 [26]: > 100 µM (inactive); GI50 [27]: > 100 µM (inactive); GI50 [28]: > 100 µM (inactive); GI50 [29]: > 100 µM (inactive); GI50 [30]: > 100 µM (inactive); GI50 [31]: > 100 µM (inactive); GI50 [32]: > 100 µM (inactive); GI50 [33]: > 100 µM (inactive); GI50 [34]: > 100 µM (inactive); GI50 [35]: > 100 µM (inactive); GI50 [36]: > 100 µM (inactive); GI50 [37]: > 100 µM (inactive); GI50 [38]: > 100 µM (inactive); GI50 [39]: > 100 µM (inactive); GI50 [40]: > 100 µM (inactive); GI50 [41]: > 100 µM (inactive); GI50 [42]: > 100 µM; GI50 [43]: > 100 µM (inactive); GI50 [44]: > 100 µM (inactive); GI50 [45]: > 100 µM (inactive); GI50 [46]: > 100 µM (inactive); GI50 [47]: > 100 µM (inactive); GI50 [48]: > 100 µM (inactive); GI50 [49]: > 100 µM (inactive); GI50 [50]: > 100 µM (inactive); GI50 [51]: > 100 µM (inactive); GI50 [52]: > 100 µM (inactive); GI50 [53]: > 100 µM (inactive); GI50 [54]: > 100 µM (inactive); GI50 [55]: > 100 µM (inactive)

What does the source list for `COC(=O)c1cc(/C=C\c2cc(OC)ccc2OC)ccc1OC`?
GI50 [1]: 32.4 µM (inactive); GI50 [2]: 51.2 µM (inactive); GI50 [56]: 24 µM (inactive); GI50 [4]: 32.7 µM (inactive); GI50 [6]: 55.1 µM (inactive); GI50 [7]: 25.6 µM (inactive); GI50 [8]: 33.3 µM (inactive); GI50 [9]: 50.8 µM (inactive); GI50 [10]: 32.3 µM (inactive); GI50 [11]: 8.81 µM (inactive); GI50 [12]: 13.7 µM (inactive); GI50 [13]: 17.7 µM (inactive); GI50 [57]: 38.5 µM (inactive); GI50 [14]: 38.2 µM (inactive); GI50 [15]: 10.4 µM (inactive); GI50 [16]: 38.9 µM (inactive); GI50 [17]: 21.2 µM (inactive); GI50 [18]: 6.75 µM (inactive); GI50 [19]: 25.6 µM (inactive); GI50 [21]: 36.4 µM (inactive); GI50 [22]: 22.6 µM (inactive); GI50 [23]: 32.1 µM (inactive); GI50 [24]: 37.3 µM (inactive); GI50 [25]: 26.1 µM (inactive); GI50 [26]: 34.4 µM (inactive); GI50 [27]: 33.6 µM (inactive); GI50 [28]: 17.7 µM (inactive); GI50 [29]: 30.5 µM (inactive); GI50 [30]: 22.4 µM (inactive); GI50 [31]: 26.9 µM (inactive); GI50 [32]: 31.2 µM (inactive); GI50 [33]: 26.1 µM (inactive); GI50 [34]: 40.4 µM (inactive); GI50 [35]: 29.2 µM (inactive); GI50 [36]: 19.9 µM (inactive); GI50 [37]: 34 µM (inactive); GI50 [38]: 43.3 µM (inactive); GI50 [39]: 18.4 µM (inactive); GI50 [40]: 30.3 µM (inactive); GI50 [41]: 6.5 µM (inactive); GI50 [42]: 33.2 µM; GI50 [43]: 26.1 µM (inactive); GI50 [44]: 24.9 µM (inactive); GI50 [45]: 28.7 µM (inactive); GI50 [46]: 30.8 µM (inactive); GI50 [48]: 25.6 µM (inactive); GI50 [49]: 24.4 µM (inactive); GI50 [50]: 32.1 µM (inactive); GI50 [51]: 18.4 µM (inactive); GI50 [52]: 35.1 µM (inactive); GI50 [53]: 18.7 µM (inactive); GI50 [54]: 37.3 µM (inactive); GI50 [55]: 39.4 µM (inactive)
